# Source: patent US7744867B2, “PTPase inhibitors and method of using same” (The Cleveland Clinic Foundation, priority 2001, dated 2010)
# Legend:
# [1] = target: T1, recombinant PRL-3 (Homo sapiens, UniProt O75365); test: In vitro PTPase assay with recombinant PRL (peptide or DiFMUP substrate); assay type: biochemical; settings: DiFMUP substrate; comparable conditions
# T1 construct: made in house; host or cells: E. coli DH5α
# Method: (§1) In vitro PTPase activities were measured using the commercial protein tyrosine phosphatase assay kit (UBI) following established procedure. […] 100 μl of Malachite Green solution was added and incubated for 5 minutes, and the absorbance at 660 nm was measured after 5 minutes.
# Recombinant GST fusion proteins of human PRL-1, 2 and 3 phosphatases were purified with glutathione beads from DH5α bacteria transformed by pGEX vectors containing cDNA fragments encoding the human PRLs which were generated by RT-PCR from H9 cells and confirmed by sequence analysis. Activities of the purified recombinant PRL proteins in dephosphorylating DiFMUP in the absence or presence of various inhibitors were measured following established procedure.
# To assess whether sodium stibogluconate is an inhibitor of oncogenic PRL phosphatases, its effects on the PTPase activity of recombinant PRLs were evaluated by in vitro PTPase assays.
# [2] = target: T2, GST/SHP-1 fusion protein (Mus musculus, UniProt P29351); test: In vitro PTPase assay, dephosphorylation of a synthetic phosphotyrosine peptide; assay type: biochemical
# T2 construct: made in house
# Method: In vitro PTPase activities were measured using the commercial protein tyrosine phosphatase assay kit (UBI) following established procedure. This assay measures the in vitro dephosphorylation of a synthetic phosphotyrosine peptide (R-R-L-I-E-D-A-E-pY-A-A-R-G). Briefly, 0.01 μg of GST/PTPase fusion protein was incubated in 50 μl of Tris buffer (10 mM Tris, […]) at 22° C. for 10 minutes, followed by addition of 0.2 mM of the phosphotyrosine peptide and incubation at 22° C. for 18 hours. 100 μl of Malachite Green solution was added and incubated for 5 minutes, and the absorbance at 660 nm was measured after 5 minutes.
# [3] = target: T3, PTP1B (GST fusion protein) (Homo sapiens, UniProt P18031); test: as above; assay type: biochemical; settings: at 11,000 μg/ml
# T3 construct: purchased Upstate Biotechnology Inc. (UBI, Lake Placid, N.Y.)
# Method: as §1
# [4] = system: Baf3 cells; test: IL-3-induced proliferation of Baf3 cells; assay type: cell-based, murine
# Method: The murine hematopoietic cell line Baf3 was maintained in RPMI 1640 medium supplemented with 10% fetal calf serum (FCS) and murine IL-3 (20 units/ml) as described previously. Human myeloid cell line TF-1 was maintained in RPMI 1640 supplemented with 10% FCS and 40 ng/ml of recombinant human GM-CSF as described previously. For cell proliferation assays, cells were washed in 10% FCS medium twice, resuspended in 10% FCS medium, incubated at 37° C. for 16 hours and then cultured at 37° C. in 10% FCS medium containing various amounts of cytokines, sodium stibogluconate, or PSbT for 3-6 days as indicated. The cell numbers in proliferation assays were determined by an MTT assay or by microscopic cell counting as indicated.
# [5] = system: Jak2 and Stat5 tyrosine phosphorylation; test: IL-3-induced Jak2/Stat5 tyrosine phosphorylation in Baf3 cells; assay type: cell-based, murine
# Method: For induction of cellular protein phosphorylation by sodium stibogluconate or pervanadate, Baf3 cells were incubated in 0.1% FCS RPMI 1640 medium at 37° C. for 16 hours. The cells were then washed twice in RPMI 1640 medium and incubated with sodium stibogluconate or pervanandate (0.1 mM) for various times prior to termination by lysing cells in cold lysis buffer (50 mM Tris, pH 7.4; 150 mM NaCl; 0.2 mM Na3VO4; 20 mm NaF; 1% NP40; 2 mM PMSF; 20 μg/ml of aprotinin and 1 mM of sodium molybdic acid). To determine the effect of sodium stibogluconate or potassium antimonyl tartrate on IL-3-induced Jak/Stat phosphorylation, Baf3 cells were deprived of the growth factor for 16 hours in 0.1% FCS RPMI 1640 medium and then incubated with or without sodium stibogluconate or potassium antimonyl tartrate for 10 minutes. IL-3 was next added to the cell suspension and incubated for various times. The cells were then harvested and lysed in cold lysis buffer at 4° C. for 45 minutes. Total cell lysates (TCL) were separated in SDS-PAGE gels, blotted onto nitrocellulose membrane (Schleicher & Schuell), probed with specific antibodies and detected using an enhanced chemiluminescence kit (ECL, Amersham).
# A functional role of SHP-1 in dephosphorylating the Jak family kinases during cytokine signaling has been documented. To determine whether sodium stibogluconate inhibits SHP-1 in vivo, the effect of the drug on IL-3-induced Jak2 tyrosine phosphorylation in Baf3 cells was examined. Baf3 cells deprived of IL-3 were incubated with or without the drug for 10 minutes and then stimulated with IL-3 for various times. IL-3 induced tyrosine phosphorylation of Jak2 and Stat5 in Baf3 cells in the presence or absence of the drug. However, the phosphotyrosine levels of Jak2 and Stat5 in the presence of the drug were about twice of those in cells without drug treatment as determined by densitometry analysis.
# [6] = target: T2, GST/SHP-1 fusion protein; test: Reversibility of SHP-1 inhibition (washing of bead-bound GST/SHP-1); assay type: biochemical; settings: preincubated with inhibitor, then washed
# Excerpt: The beads were then washed 3 times in Tris buffer or without washing prior to in vitro PTPase assays.
# T1 sequence (O75365 whole entry): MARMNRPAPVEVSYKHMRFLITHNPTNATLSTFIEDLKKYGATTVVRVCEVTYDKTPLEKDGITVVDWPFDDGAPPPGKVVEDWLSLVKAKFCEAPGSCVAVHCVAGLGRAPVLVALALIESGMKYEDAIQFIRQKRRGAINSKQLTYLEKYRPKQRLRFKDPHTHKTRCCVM
# T3 sequence (P18031 whole entry, species assumed, the tested form may be a part): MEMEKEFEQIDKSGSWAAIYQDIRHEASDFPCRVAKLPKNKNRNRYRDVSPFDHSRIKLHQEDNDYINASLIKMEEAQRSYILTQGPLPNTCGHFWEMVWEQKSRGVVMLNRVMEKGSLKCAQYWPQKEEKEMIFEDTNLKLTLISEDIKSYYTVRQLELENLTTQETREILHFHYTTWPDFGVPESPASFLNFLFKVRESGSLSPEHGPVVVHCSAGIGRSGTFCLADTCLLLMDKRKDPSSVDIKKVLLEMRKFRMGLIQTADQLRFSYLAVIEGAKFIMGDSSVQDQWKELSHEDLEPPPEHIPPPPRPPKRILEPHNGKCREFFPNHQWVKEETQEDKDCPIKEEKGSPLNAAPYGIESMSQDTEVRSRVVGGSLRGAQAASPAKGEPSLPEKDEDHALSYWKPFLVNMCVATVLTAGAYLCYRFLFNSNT
inhibition of SHP-1 compared with sodium stibogluconate ([2]; under comparable conditions),reversibility of SHP-1 inhibition [6],SMILES,inhibition of PRL-3 compared with sodium stibogluconate [1],"inhibition of SHP-1 ([2]; at 11,000 μg/ml)",inhibition of PTP1B [3],IL-3-induced proliferation of Baf3 cells [4],toxicity against Baf3 cells [4],IL-3-induced Stat5 phosphorylation [5]
,,[Na+].[Na+].[Na+].[O]=[V]([O-])([O-])[O-] [sodium orthovanadate],less effective,,,,,
,,"O.O.O.O=C([O-])[C@H]([O-])[C@@H]([O-])C(=O)[O-].O=C([O-])[C@H]([O-])[C@@H]([O-])C(=O)[O-].[K+].[K+].[Sb+3].[Sb+3] [PSbT, potassium antimonyl tartrate]",,no detectable inhibition,no detectable inhibition,failed to enhance,marked toxicity,failed to enhance
less effective,reversible,Cc1ccc(C(=O)Nc2ccc(S(=O)(=O)O)c3cc(S(=O)(=O)O)cc(S(=O)(=O)O)c23)cc1NC(=O)c1cccc(NC(=O)Nc2cccc(C(=O)Nc3cc(C(=O)Nc4ccc(S(=O)(=O)O)c5cc(S(=O)(=O)O)cc(S(=O)(=O)O)c45)ccc3C)c2)c1 [suramin],less effective,,,,,
